# Laboratory results: publication PMC4648050, “Discovery of Inhibitors of Trypanosoma brucei by Phenotypic Screening of a Focused Protein Kinase Library” (Chemmedchem, 2015)
# How the values were obtained:
# [1] = target: PLK1 (Okadaic Acid) (Homo sapiens, UniProt P53350); test: Kinase panel: PLK1 (Okadaic Acid); format: biochemical, human/mammalian; conditions: compound at 10 μM, read-out: % of activity respect of the control
# Experimental: (§1) The DDU kinase-focused compound set contains lead-like scaffolds that are designed to target protein kinases; they have kinase hinge binding motifs. Four of the 1H-imidazopyrazinones were screened against a human/mammalian kinase panel at the University of Dundee (http://www.kinase-screen.mrc.ac.uk) at a concentration of 10 μM. At the time of testing the panel contained 79 mammalian kinases selected to provide a broad coverage of the mammalian kinome (∼500 kinases in the human genome).[3] None of the compounds were active against any of the kinases at 10 μM.
# [2] = target: PKBa (Homo sapiens, UniProt P31749); test: Kinase panel: PKBa; format: biochemical, human/mammalian; conditions: compound at 10 μM, read-out: % of activity respect of the control
# PKBa, sequence (P31749 whole entry): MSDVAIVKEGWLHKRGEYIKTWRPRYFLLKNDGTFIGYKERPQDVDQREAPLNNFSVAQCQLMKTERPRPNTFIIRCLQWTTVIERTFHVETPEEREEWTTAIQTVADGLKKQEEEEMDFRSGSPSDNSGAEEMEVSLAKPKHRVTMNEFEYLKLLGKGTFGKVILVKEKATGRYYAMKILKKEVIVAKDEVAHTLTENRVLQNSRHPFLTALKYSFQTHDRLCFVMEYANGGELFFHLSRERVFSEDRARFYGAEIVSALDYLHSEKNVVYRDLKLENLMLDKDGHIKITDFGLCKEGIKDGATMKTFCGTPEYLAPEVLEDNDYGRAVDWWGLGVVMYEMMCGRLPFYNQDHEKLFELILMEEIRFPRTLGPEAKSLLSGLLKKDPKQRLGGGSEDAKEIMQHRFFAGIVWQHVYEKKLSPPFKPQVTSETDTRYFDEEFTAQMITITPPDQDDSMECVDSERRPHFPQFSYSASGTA
# Experimental: as §1
# [3] = target: MSK1 (Homo sapiens, UniProt O75582); test: Kinase panel: MSK1; format: biochemical, human/mammalian; conditions: compound at 10 μM, read-out: % of activity respect of the control
# Experimental: as §1
# [4] = target: Lck (Homo sapiens, UniProt P06239); test: Kinase panel: Lck; format: biochemical, human/mammalian; conditions: compound at 10 μM, read-out: % of activity respect of the control
# Lck, sequence (P06239 whole entry): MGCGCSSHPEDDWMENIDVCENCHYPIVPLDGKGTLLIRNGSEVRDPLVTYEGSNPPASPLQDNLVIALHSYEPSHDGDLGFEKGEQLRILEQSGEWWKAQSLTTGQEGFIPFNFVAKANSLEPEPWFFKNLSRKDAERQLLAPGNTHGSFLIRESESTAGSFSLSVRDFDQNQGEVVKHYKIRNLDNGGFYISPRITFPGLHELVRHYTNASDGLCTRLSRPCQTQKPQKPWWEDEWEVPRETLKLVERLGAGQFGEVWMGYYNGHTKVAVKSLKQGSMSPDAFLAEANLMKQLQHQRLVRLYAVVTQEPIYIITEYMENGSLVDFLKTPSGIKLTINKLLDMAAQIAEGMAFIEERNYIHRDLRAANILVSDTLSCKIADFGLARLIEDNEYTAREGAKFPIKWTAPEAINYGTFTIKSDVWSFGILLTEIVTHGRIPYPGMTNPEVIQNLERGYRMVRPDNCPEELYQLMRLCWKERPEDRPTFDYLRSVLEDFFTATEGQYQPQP
# Experimental: as §1
# [5] = target: CAMKKb (Homo sapiens, UniProt Q96RR4); test: Kinase panel: CAMKKb; format: biochemical, human/mammalian; conditions: compound at 10 μM, read-out: % of activity respect of the control
# CAMKKb, sequence (Q96RR4 whole entry): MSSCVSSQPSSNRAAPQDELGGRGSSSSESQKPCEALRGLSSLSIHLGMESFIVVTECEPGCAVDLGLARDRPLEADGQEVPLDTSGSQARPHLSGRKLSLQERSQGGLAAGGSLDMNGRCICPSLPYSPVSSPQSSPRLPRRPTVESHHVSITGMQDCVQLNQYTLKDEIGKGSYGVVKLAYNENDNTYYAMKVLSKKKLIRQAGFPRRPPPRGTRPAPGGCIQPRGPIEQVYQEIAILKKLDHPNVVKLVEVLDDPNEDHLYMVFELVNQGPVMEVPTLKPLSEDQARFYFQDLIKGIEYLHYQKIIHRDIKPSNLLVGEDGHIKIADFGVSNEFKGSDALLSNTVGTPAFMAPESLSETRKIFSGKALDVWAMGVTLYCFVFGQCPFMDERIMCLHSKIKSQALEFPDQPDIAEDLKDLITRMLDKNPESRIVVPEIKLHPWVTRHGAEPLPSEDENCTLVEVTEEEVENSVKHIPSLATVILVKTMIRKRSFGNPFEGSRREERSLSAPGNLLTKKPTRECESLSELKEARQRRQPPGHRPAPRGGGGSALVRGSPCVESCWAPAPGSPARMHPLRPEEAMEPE
# Experimental: as §1
# [6] = target: CK2 (Homo sapiens, UniProt P68400); test: Kinase panel: CK2; format: biochemical, human/mammalian; conditions: compound at 10 μM, read-out: % of activity respect of the control
# CK2, sequence (P68400 whole entry): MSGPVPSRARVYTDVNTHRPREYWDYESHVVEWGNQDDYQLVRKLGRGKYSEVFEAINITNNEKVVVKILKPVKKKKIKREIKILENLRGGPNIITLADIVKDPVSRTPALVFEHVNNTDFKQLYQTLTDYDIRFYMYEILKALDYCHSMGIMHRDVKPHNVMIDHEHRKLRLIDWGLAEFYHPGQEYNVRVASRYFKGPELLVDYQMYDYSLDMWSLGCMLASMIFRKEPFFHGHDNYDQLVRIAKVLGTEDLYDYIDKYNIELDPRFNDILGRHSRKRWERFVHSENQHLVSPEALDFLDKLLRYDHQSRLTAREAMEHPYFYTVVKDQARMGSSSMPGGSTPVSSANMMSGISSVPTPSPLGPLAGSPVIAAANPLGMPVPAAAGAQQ
# Experimental: as §1
# [7] = target: MKK1 (Homo sapiens, UniProt Q02750); test: Kinase panel: MKK1; format: biochemical, human/mammalian; conditions: compound at 10 μM, read-out: % of activity respect of the control
# MKK1, sequence (Q02750 whole entry): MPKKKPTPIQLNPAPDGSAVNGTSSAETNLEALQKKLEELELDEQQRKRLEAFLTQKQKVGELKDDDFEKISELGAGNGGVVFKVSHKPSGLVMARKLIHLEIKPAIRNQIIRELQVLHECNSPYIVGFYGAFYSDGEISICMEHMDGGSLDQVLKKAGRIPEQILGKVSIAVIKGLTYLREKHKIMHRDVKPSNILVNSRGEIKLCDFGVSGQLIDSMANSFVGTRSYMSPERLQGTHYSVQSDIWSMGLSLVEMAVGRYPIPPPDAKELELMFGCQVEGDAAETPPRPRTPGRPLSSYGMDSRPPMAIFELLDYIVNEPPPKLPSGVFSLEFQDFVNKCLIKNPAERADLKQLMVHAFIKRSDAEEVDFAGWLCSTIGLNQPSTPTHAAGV
# Experimental: as §1
# [8] = target: T1, BRSK2 (Homo sapiens, UniProt Q8IWQ3); test: Kinase panel: BRSK2; format: biochemical, human/mammalian; conditions: compound at 10 μM, read-out: % of activity respect of the control
# T1 sequence (Q8IWQ3 1-736): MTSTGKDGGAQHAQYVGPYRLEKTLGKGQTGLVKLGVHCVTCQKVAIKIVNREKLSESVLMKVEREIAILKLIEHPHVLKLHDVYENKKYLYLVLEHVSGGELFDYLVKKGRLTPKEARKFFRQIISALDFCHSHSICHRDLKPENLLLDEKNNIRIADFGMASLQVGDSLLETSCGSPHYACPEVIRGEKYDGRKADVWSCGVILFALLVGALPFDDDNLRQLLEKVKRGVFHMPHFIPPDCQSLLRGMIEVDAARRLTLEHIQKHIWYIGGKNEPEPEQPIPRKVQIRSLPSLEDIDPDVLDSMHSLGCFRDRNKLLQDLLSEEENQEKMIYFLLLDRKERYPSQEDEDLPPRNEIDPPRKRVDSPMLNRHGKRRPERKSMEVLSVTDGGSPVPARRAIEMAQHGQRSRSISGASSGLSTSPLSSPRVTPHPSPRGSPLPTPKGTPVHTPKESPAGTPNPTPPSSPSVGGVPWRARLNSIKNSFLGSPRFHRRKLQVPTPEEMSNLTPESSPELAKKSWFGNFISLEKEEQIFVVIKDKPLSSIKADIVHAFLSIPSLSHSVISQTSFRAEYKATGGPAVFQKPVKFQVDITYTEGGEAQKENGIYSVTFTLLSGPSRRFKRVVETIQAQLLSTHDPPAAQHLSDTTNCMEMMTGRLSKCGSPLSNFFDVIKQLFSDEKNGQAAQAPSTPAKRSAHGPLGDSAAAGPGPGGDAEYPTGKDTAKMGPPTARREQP
# Experimental: as §1
# [9] = target: PAK5 (Homo sapiens, UniProt Q9P286); test: Kinase panel: PAK5; format: biochemical, human/mammalian; conditions: compound at 10 μM, read-out: % of activity respect of the control
# PAK5, sequence (Q9P286 whole entry): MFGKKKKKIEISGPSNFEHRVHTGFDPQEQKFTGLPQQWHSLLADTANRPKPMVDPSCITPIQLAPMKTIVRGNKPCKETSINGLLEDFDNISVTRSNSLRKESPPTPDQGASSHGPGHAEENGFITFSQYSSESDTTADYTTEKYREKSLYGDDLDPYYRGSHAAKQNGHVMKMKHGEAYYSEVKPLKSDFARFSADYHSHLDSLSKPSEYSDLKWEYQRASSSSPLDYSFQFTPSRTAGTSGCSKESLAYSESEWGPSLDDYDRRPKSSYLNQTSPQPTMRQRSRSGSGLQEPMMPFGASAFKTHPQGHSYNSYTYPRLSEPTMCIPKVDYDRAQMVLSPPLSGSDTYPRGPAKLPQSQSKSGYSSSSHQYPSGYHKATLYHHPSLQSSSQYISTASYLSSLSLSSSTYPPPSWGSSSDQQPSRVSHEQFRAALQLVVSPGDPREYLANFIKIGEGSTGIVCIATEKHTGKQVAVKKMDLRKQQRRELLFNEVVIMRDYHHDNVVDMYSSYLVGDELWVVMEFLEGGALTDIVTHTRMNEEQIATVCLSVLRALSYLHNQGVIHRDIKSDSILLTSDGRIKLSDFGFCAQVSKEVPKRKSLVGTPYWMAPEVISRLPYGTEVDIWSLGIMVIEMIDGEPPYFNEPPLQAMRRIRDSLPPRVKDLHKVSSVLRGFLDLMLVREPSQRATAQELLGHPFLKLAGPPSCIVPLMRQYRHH
# Experimental: as §1
# [10] = target: PIM3 (Homo sapiens, UniProt Q86V86); test: Kinase panel: PIM3; format: biochemical, human/mammalian; conditions: compound at 10 μM, read-out: % of activity respect of the control
# Experimental: as §1
# [11] = target: Src (Homo sapiens, UniProt P12931); test: Kinase panel: Src; format: biochemical, human/mammalian; conditions: compound at 10 μM, read-out: % of activity respect of the control
# Src, sequence (P12931 whole entry): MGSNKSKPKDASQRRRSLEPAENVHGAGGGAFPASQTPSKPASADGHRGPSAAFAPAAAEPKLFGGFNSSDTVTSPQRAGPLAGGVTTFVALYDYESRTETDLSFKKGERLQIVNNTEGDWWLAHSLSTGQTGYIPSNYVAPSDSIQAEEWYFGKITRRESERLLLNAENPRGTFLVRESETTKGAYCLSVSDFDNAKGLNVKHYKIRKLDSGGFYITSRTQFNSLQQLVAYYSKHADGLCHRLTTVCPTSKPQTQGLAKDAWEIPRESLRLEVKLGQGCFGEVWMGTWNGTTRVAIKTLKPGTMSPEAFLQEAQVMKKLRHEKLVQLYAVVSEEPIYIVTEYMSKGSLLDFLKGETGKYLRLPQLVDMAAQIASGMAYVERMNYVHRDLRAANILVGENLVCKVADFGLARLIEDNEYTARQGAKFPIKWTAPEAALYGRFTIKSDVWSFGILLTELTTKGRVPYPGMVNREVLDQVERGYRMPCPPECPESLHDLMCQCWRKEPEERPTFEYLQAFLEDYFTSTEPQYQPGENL
# Experimental: as §1
# [12] = target: T2, TBK1 (Homo sapiens, UniProt Q9UHD2); test: Kinase panel: TBK1; format: biochemical, human/mammalian; conditions: compound at 10 μM, read-out: % of activity respect of the control
# T2 sequence (Q9UHD2 1-729): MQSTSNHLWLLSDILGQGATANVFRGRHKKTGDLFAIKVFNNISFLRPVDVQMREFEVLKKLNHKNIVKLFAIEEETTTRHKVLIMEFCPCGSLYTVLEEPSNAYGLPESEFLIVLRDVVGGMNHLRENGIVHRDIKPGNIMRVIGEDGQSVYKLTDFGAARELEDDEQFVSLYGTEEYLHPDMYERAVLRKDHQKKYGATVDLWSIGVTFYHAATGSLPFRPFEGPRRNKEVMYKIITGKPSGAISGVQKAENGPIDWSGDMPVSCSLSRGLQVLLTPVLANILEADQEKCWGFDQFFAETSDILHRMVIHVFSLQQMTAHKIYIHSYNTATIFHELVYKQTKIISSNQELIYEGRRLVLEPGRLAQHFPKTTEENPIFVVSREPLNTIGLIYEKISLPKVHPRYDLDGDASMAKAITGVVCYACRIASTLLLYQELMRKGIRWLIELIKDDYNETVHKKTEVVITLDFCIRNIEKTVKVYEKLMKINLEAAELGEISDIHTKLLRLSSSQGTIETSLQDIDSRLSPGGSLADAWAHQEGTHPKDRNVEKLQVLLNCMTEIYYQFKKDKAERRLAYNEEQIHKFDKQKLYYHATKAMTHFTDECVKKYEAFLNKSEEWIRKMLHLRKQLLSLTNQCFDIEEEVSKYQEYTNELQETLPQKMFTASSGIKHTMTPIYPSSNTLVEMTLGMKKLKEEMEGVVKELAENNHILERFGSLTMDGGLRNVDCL
# Experimental: as §1
# [13] = Intrinsic clearance in mouse liver microsomes; format: in vitro ADME; conditions: mouse hepatic microsomes, 0.5 μM compound
# Experimental: Intrinsic clearance experiments: Test compound (0.5 μM) was incubated with female CD1 mouse liver microsomes (Xenotech LLC; 0.5 mg mL^−1 50 mM potassium phosphate buffer, pH 7.4), and the reaction started with the addition of excess NADPH (8 mg mL^−1 50 mM potassium phosphate buffer, pH 7.4). Immediately, at t0, then at 3, 6, 9, 15, and 30 min an aliquot (50 μL) of the incubation mixture was removed and mixed with MeCN (100 μL) to stop the reaction. Internal standard was added to all samples, the samples were centrifuged to sediment precipitated protein, and the plates were then sealed prior to UPLC–MS/MS analysis using a Quattro Premier XE instrument (Waters Corp., USA). XLfit (IDBS, UK) was used to calculate the exponential decay and consequently the rate constant (k) from the ratio of peak area of test compound to internal standard at each time point. The rate of intrinsic clearance [CLint, mL min^−1 (g liver)^−1] of each test compound was then calculated with Equation (3): […]
# in which V [mL (mg protein)^−1] is the incubation volume per mg protein added, and microsomal protein yield is taken as 52.5 mg protein per gram of liver. Verapamil (0.5 μM) was used as a positive control to confirm acceptable assay performance.
# [14] = target: IR-HIS (Homo sapiens, UniProt P06213); test: Kinase panel: IR-HIS; format: biochemical, human/mammalian; conditions: compound at 10 μM, read-out: % of activity respect of the control
# IR-HIS, sequence (P06213 28-1382): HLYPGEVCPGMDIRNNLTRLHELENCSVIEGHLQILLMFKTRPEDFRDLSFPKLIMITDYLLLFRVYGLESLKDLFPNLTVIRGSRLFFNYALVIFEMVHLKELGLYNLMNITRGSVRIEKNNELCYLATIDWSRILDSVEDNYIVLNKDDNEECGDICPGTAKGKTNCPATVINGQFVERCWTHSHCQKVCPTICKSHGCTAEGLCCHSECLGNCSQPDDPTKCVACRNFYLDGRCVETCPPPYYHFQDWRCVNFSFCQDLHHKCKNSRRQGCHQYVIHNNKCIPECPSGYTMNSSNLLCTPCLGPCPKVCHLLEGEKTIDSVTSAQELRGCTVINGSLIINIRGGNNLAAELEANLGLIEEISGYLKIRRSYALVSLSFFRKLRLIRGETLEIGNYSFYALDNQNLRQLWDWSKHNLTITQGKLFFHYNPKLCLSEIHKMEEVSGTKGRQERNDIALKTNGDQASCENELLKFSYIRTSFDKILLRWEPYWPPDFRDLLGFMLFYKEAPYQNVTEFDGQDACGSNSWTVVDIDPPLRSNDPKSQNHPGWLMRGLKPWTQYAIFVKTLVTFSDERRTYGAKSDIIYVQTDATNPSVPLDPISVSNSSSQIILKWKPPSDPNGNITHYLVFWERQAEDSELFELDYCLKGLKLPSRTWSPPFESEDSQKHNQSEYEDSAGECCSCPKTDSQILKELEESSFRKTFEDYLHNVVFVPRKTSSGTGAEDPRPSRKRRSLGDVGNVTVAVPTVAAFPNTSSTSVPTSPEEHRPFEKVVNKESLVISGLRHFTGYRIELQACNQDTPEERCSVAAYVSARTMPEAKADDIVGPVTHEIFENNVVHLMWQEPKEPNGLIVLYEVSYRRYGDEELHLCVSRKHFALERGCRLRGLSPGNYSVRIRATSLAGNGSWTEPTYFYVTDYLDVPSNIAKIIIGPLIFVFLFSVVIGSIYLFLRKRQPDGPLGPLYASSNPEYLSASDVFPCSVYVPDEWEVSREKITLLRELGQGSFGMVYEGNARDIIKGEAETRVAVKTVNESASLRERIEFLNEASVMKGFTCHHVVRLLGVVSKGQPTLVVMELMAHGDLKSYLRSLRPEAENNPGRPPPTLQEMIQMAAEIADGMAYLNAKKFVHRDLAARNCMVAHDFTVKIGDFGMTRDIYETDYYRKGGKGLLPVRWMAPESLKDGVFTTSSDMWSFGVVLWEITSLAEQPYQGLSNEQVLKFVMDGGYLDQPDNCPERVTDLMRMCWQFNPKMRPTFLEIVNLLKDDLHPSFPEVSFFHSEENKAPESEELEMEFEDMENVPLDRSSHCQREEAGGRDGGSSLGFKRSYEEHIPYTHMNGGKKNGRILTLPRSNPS
# Experimental: as §1
Structure (SMILES),remaining activity at 10 µM [1],remaining activity at 10 µM [2],remaining activity at 10 µM [3],remaining activity at 10 µM [4],remaining activity at 10 µM [5],remaining activity at 10 µM [6],remaining activity at 10 µM [7],remaining activity at 10 µM [8],remaining activity at 10 µM [9],remaining activity at 10 µM [10],remaining activity at 10 µM [11],remaining activity at 10 µM [12],CLint [13],remaining activity at 10 µM [14]
CC(c1ccccc1)n1c(=O)[nH]c2ncc(-c3ccc(F)cc3)nc21 (stereo not drawn) [Compound 1],96%,99%,89%,90%,101%,107%,106%,82%,84%,83%,80%,95%,< 0.5 mL/min/g,88%
O=c1[nH]c2ncc(-c3ccc(F)cc3)nc2n1CC1CC1 [Compound 10],109%,96%,89%,99%,98%,105%,97%,90%,95%,89%,98%,95%,–,109%
"O=c1[nH]c2ncc(-c3ccc(F)cc3)nc2n1C1CCCCC1 [Compound 12, 1-Cyclohexyl-6-(4-fluorophenyl)-1H-imidazo[4,5-b]pyrazin-2(3H)-one]",96%,102%,97%,105%,104%,111%,62%,100%,100%,90%,94%,92%,0.7 mL/min/g,119%
"C[C@H](c1ccccc1)n1c(=O)[nH]c2ncc(-c3ccccc3)nc21 [Compound 14, (R)-6-Phenyl-1-(1-phenylethyl)-1H-imidazo[4,5-b]pyrazin-2(3H)-one]",–,89%,93%,89%,86%,105%,87%,72%,80%,83%,70%,100%,–,93%
O=c1[nH]c2ncc(-c3ccccc3CO)nc2n1C1CCCCC1 [Compound 28],–,–,–,–,–,–,–,–,–,–,–,–,2.4 mL/min/g,–
